# Measurements reported in US10125098B2, “Therapeutic compounds and methods of use thereof” (GENENTECH, INC., priority 2014, dated 2018).
# Read-outs that look alike come from different tables or passages of the source.
# Experiments:
# [1] = target: T1, hNav1.7 (Homo sapiens, UniProt Q15858); test: Tritiated compound binding (LBA) to membranes from cells expressing hNav1.7 and the β1 subunit, competitive binding; details: competitive binding vs 100 pM [3H]compound, 18 h, room temperature, membranes with hNav1.7 and β1 subunit
# T1 construct: expressed in transfected cells
# T1 sequence (Q15858 1-1977 isoform Q15858-3): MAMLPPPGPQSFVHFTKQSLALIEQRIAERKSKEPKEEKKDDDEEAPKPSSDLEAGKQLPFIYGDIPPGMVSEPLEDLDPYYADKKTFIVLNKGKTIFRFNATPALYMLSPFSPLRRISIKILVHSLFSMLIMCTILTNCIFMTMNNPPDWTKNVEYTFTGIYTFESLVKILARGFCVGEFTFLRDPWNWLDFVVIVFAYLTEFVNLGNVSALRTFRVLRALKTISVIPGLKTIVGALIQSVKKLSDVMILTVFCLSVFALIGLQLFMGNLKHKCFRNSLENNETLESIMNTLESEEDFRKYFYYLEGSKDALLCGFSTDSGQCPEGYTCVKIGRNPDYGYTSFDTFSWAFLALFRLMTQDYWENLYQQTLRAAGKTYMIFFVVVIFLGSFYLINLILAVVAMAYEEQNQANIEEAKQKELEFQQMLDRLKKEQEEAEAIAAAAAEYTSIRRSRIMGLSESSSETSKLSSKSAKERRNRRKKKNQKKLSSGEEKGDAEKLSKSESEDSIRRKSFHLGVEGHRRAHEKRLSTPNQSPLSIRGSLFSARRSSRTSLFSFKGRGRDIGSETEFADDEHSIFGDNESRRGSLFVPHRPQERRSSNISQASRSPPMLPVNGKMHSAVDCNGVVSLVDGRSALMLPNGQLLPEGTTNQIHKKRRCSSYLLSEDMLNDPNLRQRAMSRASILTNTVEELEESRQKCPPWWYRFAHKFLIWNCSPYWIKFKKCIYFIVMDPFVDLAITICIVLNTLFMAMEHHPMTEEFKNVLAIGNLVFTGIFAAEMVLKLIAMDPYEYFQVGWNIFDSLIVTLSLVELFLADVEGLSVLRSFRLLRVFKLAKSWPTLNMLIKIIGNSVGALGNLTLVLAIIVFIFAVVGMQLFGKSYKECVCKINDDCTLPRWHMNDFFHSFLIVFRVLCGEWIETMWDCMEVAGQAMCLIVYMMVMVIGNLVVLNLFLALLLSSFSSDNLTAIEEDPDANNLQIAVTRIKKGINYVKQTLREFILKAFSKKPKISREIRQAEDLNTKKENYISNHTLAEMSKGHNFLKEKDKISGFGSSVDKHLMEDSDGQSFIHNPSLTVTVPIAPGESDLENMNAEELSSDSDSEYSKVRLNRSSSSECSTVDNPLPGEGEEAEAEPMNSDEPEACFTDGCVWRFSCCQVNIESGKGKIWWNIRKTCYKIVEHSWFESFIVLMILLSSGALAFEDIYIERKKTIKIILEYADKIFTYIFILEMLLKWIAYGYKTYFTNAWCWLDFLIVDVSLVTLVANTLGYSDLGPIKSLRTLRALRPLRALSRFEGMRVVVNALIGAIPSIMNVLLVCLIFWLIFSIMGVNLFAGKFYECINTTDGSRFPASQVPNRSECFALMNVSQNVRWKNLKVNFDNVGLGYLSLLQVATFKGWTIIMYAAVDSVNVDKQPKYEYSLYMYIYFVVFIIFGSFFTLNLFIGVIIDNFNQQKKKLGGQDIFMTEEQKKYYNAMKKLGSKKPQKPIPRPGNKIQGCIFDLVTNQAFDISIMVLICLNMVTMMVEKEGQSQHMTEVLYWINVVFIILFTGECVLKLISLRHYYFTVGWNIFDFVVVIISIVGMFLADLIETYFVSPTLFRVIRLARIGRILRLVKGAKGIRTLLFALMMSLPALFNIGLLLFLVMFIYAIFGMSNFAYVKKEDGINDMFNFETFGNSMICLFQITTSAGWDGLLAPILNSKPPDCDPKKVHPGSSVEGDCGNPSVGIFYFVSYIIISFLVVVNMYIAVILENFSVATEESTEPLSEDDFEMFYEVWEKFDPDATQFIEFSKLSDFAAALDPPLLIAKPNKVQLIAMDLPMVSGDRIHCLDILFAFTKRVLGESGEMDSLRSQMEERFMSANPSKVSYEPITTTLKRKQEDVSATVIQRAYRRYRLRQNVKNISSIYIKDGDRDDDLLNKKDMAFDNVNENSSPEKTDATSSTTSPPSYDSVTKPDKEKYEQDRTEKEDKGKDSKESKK
# T1 sequence (Q07699 19-218 partner): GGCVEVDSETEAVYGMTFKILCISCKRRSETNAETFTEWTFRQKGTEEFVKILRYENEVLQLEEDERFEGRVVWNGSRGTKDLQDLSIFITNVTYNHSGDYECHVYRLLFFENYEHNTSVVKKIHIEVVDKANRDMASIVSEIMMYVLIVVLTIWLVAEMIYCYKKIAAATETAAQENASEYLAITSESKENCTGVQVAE
# Procedure, shortened: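 Competitive displacement of 100 pM [3H]compound (tritiated methyl analogue of formula (I)) from hNav1.7/β1 membranes, 18 h at room temperature in NaCl/Tris pH 7.4 buffer containing 0.01% BSA. 1 μM unlabeled compound set non-specific binding. Bound label quantified by scintillation after filtration; 4-parameter fit gave IC50.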
# [2] = target: T2, NaV1.5 (Homo sapiens, UniProt Q14524); test: Patch voltage clamp electrophysiology assay (EP), NaV1.5; assay type: cell-based; details: HEK-293 cells stably expressing NaV1.5 with β1 subunit, whole-cell patch clamp, membrane potential −60 mV (inactivated state)
# T2 construct: permanently transfected with an expression vector containing the full-length cDNA coding for the desired human sodium channel α-subunit; expressed in transfected cells; host or cells: HEK-293
# T2 sequence (Q14524 whole entry): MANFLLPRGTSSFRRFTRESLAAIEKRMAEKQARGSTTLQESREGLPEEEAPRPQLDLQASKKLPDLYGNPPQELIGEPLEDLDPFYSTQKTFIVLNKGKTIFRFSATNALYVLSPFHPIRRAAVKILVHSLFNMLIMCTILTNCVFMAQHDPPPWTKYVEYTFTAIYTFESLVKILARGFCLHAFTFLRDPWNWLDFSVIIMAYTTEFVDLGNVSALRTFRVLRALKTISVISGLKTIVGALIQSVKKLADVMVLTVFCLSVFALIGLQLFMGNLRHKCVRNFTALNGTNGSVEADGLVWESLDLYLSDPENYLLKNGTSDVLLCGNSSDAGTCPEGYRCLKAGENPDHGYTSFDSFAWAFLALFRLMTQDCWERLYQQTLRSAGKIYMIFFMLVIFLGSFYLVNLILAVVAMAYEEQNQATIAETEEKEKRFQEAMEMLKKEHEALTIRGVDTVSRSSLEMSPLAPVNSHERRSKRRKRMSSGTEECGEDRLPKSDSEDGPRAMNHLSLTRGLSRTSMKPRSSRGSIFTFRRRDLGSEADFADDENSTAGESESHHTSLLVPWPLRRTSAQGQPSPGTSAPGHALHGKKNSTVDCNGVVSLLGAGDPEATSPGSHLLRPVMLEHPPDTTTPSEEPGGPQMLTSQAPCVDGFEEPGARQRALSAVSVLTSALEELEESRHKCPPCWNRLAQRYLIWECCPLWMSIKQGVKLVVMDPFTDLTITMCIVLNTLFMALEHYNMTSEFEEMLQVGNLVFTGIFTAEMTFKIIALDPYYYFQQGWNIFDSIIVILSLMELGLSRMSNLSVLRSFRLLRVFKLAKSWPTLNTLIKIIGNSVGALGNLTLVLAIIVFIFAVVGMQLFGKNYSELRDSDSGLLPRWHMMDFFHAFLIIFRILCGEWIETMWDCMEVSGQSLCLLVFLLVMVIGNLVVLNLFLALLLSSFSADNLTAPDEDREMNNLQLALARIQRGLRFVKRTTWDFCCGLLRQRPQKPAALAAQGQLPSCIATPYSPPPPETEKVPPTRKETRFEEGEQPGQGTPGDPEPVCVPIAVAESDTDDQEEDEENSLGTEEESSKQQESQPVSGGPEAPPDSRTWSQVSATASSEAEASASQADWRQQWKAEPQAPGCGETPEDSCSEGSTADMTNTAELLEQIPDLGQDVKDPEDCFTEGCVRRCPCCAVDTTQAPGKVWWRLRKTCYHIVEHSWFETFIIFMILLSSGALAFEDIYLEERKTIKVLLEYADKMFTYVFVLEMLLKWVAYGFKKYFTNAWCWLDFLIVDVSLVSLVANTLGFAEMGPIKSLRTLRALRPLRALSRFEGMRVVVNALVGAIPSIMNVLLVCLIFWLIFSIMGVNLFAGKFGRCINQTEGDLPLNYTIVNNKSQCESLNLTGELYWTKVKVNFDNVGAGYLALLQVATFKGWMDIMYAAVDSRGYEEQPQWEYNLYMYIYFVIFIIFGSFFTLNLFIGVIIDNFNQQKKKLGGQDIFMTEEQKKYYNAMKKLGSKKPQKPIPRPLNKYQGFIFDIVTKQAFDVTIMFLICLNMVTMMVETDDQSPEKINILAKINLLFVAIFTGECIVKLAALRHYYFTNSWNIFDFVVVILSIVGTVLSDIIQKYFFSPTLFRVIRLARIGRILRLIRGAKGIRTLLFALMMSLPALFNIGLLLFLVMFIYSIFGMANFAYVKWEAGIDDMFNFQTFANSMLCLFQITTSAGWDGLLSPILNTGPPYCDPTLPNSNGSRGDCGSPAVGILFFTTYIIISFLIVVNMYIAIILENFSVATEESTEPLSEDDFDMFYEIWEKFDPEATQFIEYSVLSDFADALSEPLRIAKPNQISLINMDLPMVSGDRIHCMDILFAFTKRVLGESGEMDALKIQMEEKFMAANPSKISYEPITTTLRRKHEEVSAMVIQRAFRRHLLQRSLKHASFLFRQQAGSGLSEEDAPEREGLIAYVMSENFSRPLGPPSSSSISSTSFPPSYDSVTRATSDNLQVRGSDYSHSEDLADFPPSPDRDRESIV
# Method: The following patch voltage clamp electrophysiology studies were performed on representative compounds of the invention using human embryonic kidney cells (HEK), permanently transfected with an expression vector containing the full-length cDNA coding for the desired human sodium channel α-subunit, grown in culture media containing 10% FBS, 1% PSG, and 0.5 mg/mL G418 at 37° C. with 5% CO2. […] NaV1.7 and NaV1.5 cDNAs (NM_002977 and AC137587; SCN5A, respectively) were stably expressed in HEK-293 cells. The β1 subunit was coexpressed in both the NaV1.7 and NaV1.5 cell lines.
# Sodium currents were measured using the patch clamp technique in the whole-cell configuration using either a PatchXpress automated voltage clamp or manually using an Axopatch 200B (Axon Instruments) or Model 2400 (A-M systems) amplifier. The manual voltage clamp protocol was as follows: Borosilicate glass micropipettes were fire-polished to a tip diameter yielding a resistance of 2-4 Mohms in the working solutions. The pipette was filled with a solution comprised of: 5 mM NaCl, 10 mM CsCl, 120 mM CsF, 0.1 mM CaCl2, 2 mM MgCl2, 10 mM HEPES, 10 mM EGTA; and adjusted to pH 7.2 with CsOH. The external solution had the following composition: 140 mM NaCl, 5 mM KCl, 2 mM CaCl2, 1 mM MgCl2, 10 mM HEPES; and adjusted to pH 7.4 with NaOH. In some studies, the external sodium was reduced by equimolar replacement with choline. Osmolarity in the CsF internal and NaCl external solutions was adjusted to 300 mOsm/kg and 310 mOsm/kg with glucose, respectively. All recordings were performed at ambient temperature in a bath chamber with a volume of 150 μL. Control sodium currents were measured in 0.5% DMSO. Controls and representative compounds of the invention were applied to the recording chamber through a 4-pinch or 8-pinch valve bath perfusion system manufactured by ALA Scientific Instruments.
# Series resistance compensation was applied (60-80%). […] All statistics in this study are given as mean±SD.
# The membrane potential was maintained at a voltage where inactivation of the channel is complete (which was −60 mV for both NaV1.7 and NaV1.5). The voltage is then stepped back to a very negative (Vhold=[…]) voltage for 20 ms and then a test pulse is applied to quantify the compound block. […] The percent decrease in sodium current following wash-on of compound was taken as the percent block of sodium channels.
# [3] = target: T3, human NaV1.7 (Homo sapiens, UniProt Q15858); test: Patch voltage clamp electrophysiology assay (EP), NaV1.7; assay type: cell-based; details: HEK-293 cells stably expressing NaV1.7 with β1 subunit; whole-cell patch clamp, membrane potential −60 mV (inactivated state)
# T3 construct: permanently transfected with an expression vector containing the full-length cDNA coding for the desired human sodium channel α-subunit; expressed in transfected cells; host or cells: HEK-293
# T3 sequence (Q15858 1-1977 isoform Q15858-3): as the sequence (Q15858 1-1977 isoform Q15858-3) above
# T3 sequence (Q07699 19-218 partner): as the sequence (Q07699 19-218 partner) above
# Procedure, shortened: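 Percent block is the drop in sodium current after compound wash-on, measured by a test pulse following 20 ms at −150 mV from a −60 mV inactivating holding potential.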
# [4] = human, HEK-293 cells stably expressing human NaV1.5 with β1 subunit, pH 7.4
Structure (SMILES),IC50 [1] [nM],IC50 [3] [nM],"IC50 [2, 4] [µM]",IC50 ([2]; read-out: Nav1.5) [µM]
"O=C(O)C[C@@H]1CCN1C(=O)c1cc(C2CC2)c(OCC23CC4CC(CC(C4)C2)C3)cc1F [Example 215, 2-((S)-1-(4-((adamantan-1-yl)methoxy)-5-cyclopropyl-2-fluorobenzoyl)azetidin-2-yl)acetic acid]",1100,5400,≥ 30,
"O=C(O)[C@@H]1[C@H]2CC[C@H](C2)N1C(=O)c1cc(C2CC2)c(OCC23CC4CC(CC(C4)C2)C3)cc1F [Example 146, (1S,2S,4R)-3-[4-(1-adamantylmethoxy)-5-cyclopropyl-2-fluoro-benzoyl]-3-azabicyclo[2.2.1]heptane-2-carboxylic acid]",180,1500,,8.4
"O=C(O)C1COCCN1C(=O)c1cc(C2CC2)c(OCC23CC4CC(CC(C4)C2)C3)cc1F (stereo not drawn) [Example 72, 4-(4-(adamantan-1-ylmethoxy)-5-cyclopropyl-2-fluorobenzoyl)morpholine-3-carboxylic acid]",3600,5600,,24
"CC1(O)C[C@@H](C(=O)O)N(C(=O)c2cc(C3CC3)c(OCC34CC5CC(CC(C5)C3)C4)cc2F)C1 (stereo partly drawn) [Example 218, (2S)-1-(4-(adamantan-1-ylmethoxy)-5-cyclopropyl-2-fluorobenzoyl)-4-hydroxy-4-methylpyrrolidine-2-carboxylic acid]",230,1600,,24
"CC(c1cc(Cl)cc(Cl)c1)N1CCC(COc2cc(F)c(C(=O)N3[C@@H](C(=O)O)C[C@H]4CCC[C@H]43)cc2C2CC2)CC1 (stereo partly drawn) [Example 172, (2R,3R,6R)-1-(5-cyclopropyl-4-((1-((R)-1-(3,5-dichlorophenyl)ethyl)piperidin-4-yl)methoxy)-2-fluorobenzoyl)octahydrocyclopenta[b]pyrrole-2-carboxylic acid]",1000,4200,,14
"CC[C@H]1CCN(C(=O)c2cc(C3CC3)c(OCC34CC5CC(CC(C5)C3)C4)cc2F)[C@@H]1C(=O)O [Example 168a, (2S,3S)-1-[4-(1-adamantylmethoxy)-5-cyclopropyl-2-fluoro-benzoyl]-3-ethyl-pyrrolidine-2-carboxylic acid]",610,3300,,6.8
"CC(C)[C@@H](C(=O)O)N(C)C(=O)c1cc(C2CC2)c(OCC23CC4CC(CC(C4)C2)C3)cc1F [Example 67, N-(4-(adamantan-1-ylmethoxy)-5-cyclopropyl-2-fluorobenzoyl)-N-methyl-L-valine]",1000,3000,,7.5
"CC(C)[C@H](NC(=O)c1cc(C2CC2)c(OCC2(F)CCN(Cc3cc(Cl)cc(C(F)(F)F)c3)CC2)cc1F)C(=O)O [Example 216, (4-((1-(3-Chloro-5-(trifluoromethyl)benzyl)-4-fluoropiperidin-4-yl)methoxy)-5-cyclopropyl-2-fluorobenzoyl)-L-valine]",600,8600,≥ 30,
"CC(C)[C@@H](C(=O)O)N(C)C(=O)c1cc(C2CC2)c(COc2cc(Cl)cc(OC(F)(F)F)c2)cc1F [Example 187, (S)-2-(4-((3-chloro-5-(trifluoromethoxy)phenoxy)methyl)-5-cyclopropyl-2-fluoro-N-methylbenzamido)-3-methylbutanoic acid]",3300,7300,,11

# Now those with a lower IC50 [1], led by results:
IC50 [1] [nM],IC50 [3] [nM],Structure (SMILES),"IC50 [2, 4] [µM]",IC50 ([2]; read-out: Nav1.5) [µM]
51,890,"CC(C)Oc1ncc(CN2CCC(F)(COc3cc(F)c(C(=O)N4C[C@H](F)C[C@H]4C(=O)O)cc3C3CC3)CC2)cc1Cl [Example 109, (2S,4R)-1-(4-((1-((5-chloro-6-isopropoxypyridin-3-yl)methyl)-4-fluoropiperidin-4-yl)methoxy)-5-cyclopropyl-2-fluorobenzoyl)-4-fluoropyrrolidine-2-carboxylic acid]",≥ 30,
120,4000,"O=C(N[C@@H](CC1CC1)C(=O)O)c1cc(C2CC2)c(OCC23CC4CC(CC(C4)C2)C3)cc1F [Example 189, (S)-2-(4-((3S,5S,7S)-adamantan-1-ylmethoxy)-5-cyclopropyl-2-fluorobenzamido)-3-cyclopropylpropanoic acid]",,15
24,700,"O=C(N[C@H](C(=O)O)C1CC1)c1cc(C2CC2)c(OCC23CC4CC(CC(C4)C2)C3)cc1F [Example 74, (S)-2-(4-(adamantan-1-ylmethoxy)-5-cyclopropyl-2-fluorobenzamido)-2-cyclopropylacetic acid]",,7.5
17,87,"C[C@H]1OCN(C(=O)c2cc(C3CC3)c(OCC3CCN(Cc4cc(C(F)(F)F)ccc4Cl)CC3)cc2F)[C@@H]1C(=O)O [Example 228, (4S,5R)-3-(4-((1-(2-chloro-5-(trifluoromethyl)benzyl)piperidin-4-yl)methoxy)-5-cyclopropyl-2-fluorobenzoyl)-5-methyloxazolidine-4-carboxylic acid]",,25
7.7,300,"C[C@H]1CCN(C(=O)c2cc(C3CC3)c(OCC3(C)CN([C@H](c4ccccc4)c4cc(Cl)cc(Cl)c4)C3)cc2F)[C@@H]1C(=O)O (single isomer, unassigned) [Example 115]",,11
7.6,320,"C[C@H]1OCN(C(=O)c2cc(C3CC3)c(OCC3CCN([C@@H](c4cc(Cl)cc(Cl)c4)C(F)(F)F)CC3)cc2F)[C@@H]1C(=O)O (single isomer, unassigned) [Example 138b]",,11
17,2000,"O=C(N[C@H](C(=O)O)C1CC1)c1cc(C2CC2)c(OCC2CCN(C(c3cc(Cl)cc(Cl)c3)C(F)(F)F)CC2)cc1F (stereo partly drawn) [Example 53, (2S)-2-cyclopropyl-2-(5-cyclopropyl-4-((1-(1-(3,5-dichlorophenyl)-2,2,2-trifluoroethyl)piperidin-4-yl)methoxy)-2-fluorobenzamido)acetic acid]",,14
100,600,"O=C(O)[C@@H]1C[C@@H](F)CN1C(=O)c1cc(C2CC2)c(OCCC2CCN(Cc3cc(Cl)cc(Cl)c3)CC2)cc1F [Example 94, (2S, 4R)-1-(5-cyclopropyl-4-(2-(1-(3,5-dichlorobenzyl)piperidin-4-yl)ethoxy)-2-fluorobenzoyl)-4-fluoropyrrolidine-2-carboxylic acid]",≥ 30,
47,690,"C[C@@H](c1cc(Cl)cc(Cl)c1)N1CCC(COc2cc(F)c(C(=O)N3CCC[C@H]3C(=O)O)cc2C2CC2)CC1 (single isomer, unassigned) [Example 79a]",≥ 30,
170,2200,"CO[C@H]1CN(C(=O)c2cc(C3CC3)c(OCC34CC5CC(CC(C5)C3)C4)cc2F)[C@H](C(=O)O)C1C (stereo partly drawn) [Example 205, (2S,4R)-1-(4-(adamantan-1-ylmethoxy)-5-cyclopropyl-2-fluorobenzoyl)-4-methoxy-3-methylpyrrolidine-2-carboxylic acid]",,25
36,380,"CO[C@@H]1CN(C(=O)c2cc(C3CC3)c(OCC34CC5CC(CC(C5)C3)C4)cc2F)[C@H](C(=O)O)[C@H]1C [Example 207, (2S,3R,4S)-1-(4-(adamantan-1-ylmethoxy)-5-cyclopropyl-2-fluorobenzoyl)-4-methoxy-3-methylpyrrolidine-2-carboxylic acid]",,16
